Here are results for 56 molecules from ChEMBL document CHEMBL1221220, “Transport and signaling via the amino acid binding site of the yeast Gap1 amino acid transceptor” (Nat Chem Biol, 2009).

The Ki is the equilibrium dissociation constant of an inhibitor or competing ligand from its target. A high value points to a looser hold on the target. For orientation: inhibition means the relative decrease from the control value, in per cent. What is called Km is the concentration of substrate that gives half-maximal velocity.

T1: General amino-acid permease GAP1 (Saccharomyces cerevisiae, UniProt P19145)
T1 sequence (P19145 whole entry): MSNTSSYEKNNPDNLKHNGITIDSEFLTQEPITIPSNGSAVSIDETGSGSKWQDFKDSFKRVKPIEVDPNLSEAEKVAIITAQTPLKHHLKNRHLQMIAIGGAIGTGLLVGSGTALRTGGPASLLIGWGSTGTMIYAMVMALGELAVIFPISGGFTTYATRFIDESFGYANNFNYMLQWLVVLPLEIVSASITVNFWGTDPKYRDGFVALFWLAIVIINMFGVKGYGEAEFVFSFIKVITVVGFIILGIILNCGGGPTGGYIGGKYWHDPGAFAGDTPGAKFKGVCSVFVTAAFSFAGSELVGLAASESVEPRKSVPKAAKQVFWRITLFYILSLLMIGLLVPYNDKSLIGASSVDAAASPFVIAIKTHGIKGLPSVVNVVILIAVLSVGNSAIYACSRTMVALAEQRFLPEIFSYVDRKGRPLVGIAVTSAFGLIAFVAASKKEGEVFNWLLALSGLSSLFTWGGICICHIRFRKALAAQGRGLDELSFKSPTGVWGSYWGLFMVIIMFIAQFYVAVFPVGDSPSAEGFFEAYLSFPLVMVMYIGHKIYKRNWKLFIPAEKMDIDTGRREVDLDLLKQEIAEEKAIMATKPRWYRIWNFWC

T2: General amino-acid permease GAP1 (Saccharomyces cerevisiae) (UniProt P19145)
T2 sequence (whole entry): T1 sequence (P19145 whole entry)

B1: General amino-acid permease GAP1 (Saccharomyces cerevisiae), P19145 (protein)
chain: T1 sequence (P19145 whole entry)

Active and inactive are the calls of the source. The calls are words filed in the database; no cut-off is given here. Non-standard residues stand in square brackets, D forms with d. Residues, ends and D or L forms follow the SMILES beside them. *: point of attachment. Hyp = O=C(O)[C@@H]1C[C@@H](O)CN1; βNA = c1ccc2cc(N*)ccc2c1; βAla = NCCC(=O)O

In one data set the target is T1, General amino-acid permease GAP1. Nature of the data set: Noncompetitive inhibition of nitrogen-starved wild type sigma1278b Gap1-mediated amino acid transport by Lineweaver-Burke plot analysis.
Conditions: not given
Regarding `N=C(N)NCCC[C@H](N)C(=O)N[C@@H](Cc1ccccc1)C(=O)N[C@@H](Cc1ccccc1)C(=O)O` (H-Arg-Phe-Phe-OH), the Ki amounted to 12 mM.
`CSCC[C@H](NC(=O)[C@@H](N)CC(C)C)C(N)=O` (H-Leu-Met-NH2): the affinity corresponds to a Ki of 5 mM.

The target of the next data set is T2, General amino-acid permease GAP1 (Saccharomyces cerevisiae). Nature of the data set: Induction of nitrogen-starved wild type sigma1278b yeast Gap1-mediated […] activation at 10 mM.
Conditions: not given
As for `N=C(N)NCCC[C@H](N)C(=O)N[C@@H](Cc1ccccc1)C(=O)N[C@@H](Cc1ccccc1)C(=O)O` (H-Arg-Phe-Phe-OH), the outcome was Active.
With `N[C@@H](CCC(=O)O)C(=O)O`, the outcome was Active.
As for `N[C@@H](Cc1c[nH]c2ccccc12)C(=O)O`, the outcome was inactive.
On the same count and under the same terms, the same measure for `C[C@@H](O)[C@H](N)C(=O)O`: “Active”.
Take `N[C@@H](Cc1ccccc1)C(=O)O`: the outcome was Active.
Still for that read-out and setting: next, `NCCCC[C@H](N)C(=O)O`: “inactive”; `N[C@@H](CC(=O)O)C(=O)O`: “Active”; `N[C@@H](Cc1c[nH]cn1)C(=O)O`: “inactive”.
Regarding `N[C@@H](CO)C(=O)O`, the result was Active.
Consider `O=C(O)[C@@H]1CCCN1`, for which the result was Active.
In the case of `CSCC[C@H](NC(=O)[C@@H](N)CC(C)C)C(N)=O` (H-Leu-Met-NH2), the outcome was inactive.

Another data set shares this target. Particulars: sigma1278b, at 5 mM.
Description: Inhibition of nitrogen-starved wild type sigma1278b yeast Gap1-mediated amino acid uptake at 5 mM after 60 secs relative to L-citrulline
`CC(C)C[C@H](NC(=O)[C@@H](N)[C@@H](C)O)C(=O)O` (H-Thr-Leu-OH) had an inhibition of less than 15%.
Same read-out and setting: the same measure for `CC[C@H](C)[C@H](NC(=O)CNC(=O)CN)C(=O)O` (H-Gly-Gly-Ile-OH): less than 15%; for `CC(C)C[C@H](NC(=O)[C@@H](N)CC(C)C)C(=O)N1CCC[C@H]1C(=O)O` (H-Leu-Leu-Pro-OH): less than 15%; for `CC(C)C[C@@H](N)CO`: less than 15%.
The same measure, in the same setting: next, `CSCC[C@H](NC(=O)[C@@H](N)CCSC)C(=O)O` (H-Met-Met-OH): less than 15%; `O=C(O)[C@@H]1CNCCN1`: less than 15%.
The molecule `N[C@H](CO)Cc1c[nH]c2ccccc12` had an inhibition of less than 15%.
The same measure, in the same setting: the same measure for `CC(C)C[C@H](N)C(=O)NCC(=O)NCC(=O)O` (H-Leu-Gly-Gly-OH): less than 15%; for `CSCCC(NC(=O)C(C)N)C(=O)O` (racemic): less than 15%; for `COC(=O)[C@@H](N)C(C)C`: less than 15%.
On the same count and under the same terms, the same measure for `CC(=O)NC(Cc1ccc(Br)cc1)C(=O)O` (racemic): 15%.
`CC(C)C[C@H](NC(=O)[C@@H](N)CCC(=O)O)C(=O)O` (H-Glu-Leu-OH) gave an inhibition of less than 15%.
With `NC(=O)[C@@H]1CCCN1`, the inhibition was less than 15%.
On the same count and under the same terms, the same measure for `N[C@@H](CS)C(=O)NCC(=O)O`: less than 15%.
As to `CC(C)[C@H](N)C(=O)N[C@H](C(=O)O)C(C)C` (H-Val-Val-OH), the inhibition was determined as 15%.
Still for that read-out and setting: the same measure for `CC(C)C[C@H](N)C(=O)N1C[C@H](O)C[C@H]1C(=O)O` (H-Leu-[Hyp]-OH): less than 15%; for `C[C@H](N)C(=O)N[C@@H](CO)C(=O)O` (H-Ala-Ser-OH): greater than 30%; for `NCC(=O)NCC(=O)NCC(=O)O`: less than 15%.
As for `N[C@@H](Cc1c[nH]cn1)C(=O)NCC(=O)O` (H-His-Gly-OH), the inhibition was less than 15%.
As for `CC(C)(C)OC(=O)N[C@@H](CCCCN)C(=O)O`, the inhibition was less than 15%.
Molecule `N[C@@H](Cc1ccc(O)cc1)C(=O)N[C@@H](CCC(=O)O)C(=O)O` (H-Tyr-Glu-OH) showed an inhibition of less than 15%.
Molecule `NCC(=O)NCC(=O)N[C@@H](Cc1ccc(O)cc1)C(=O)O` (H-Gly-Gly-Tyr-OH) showed an inhibition of less than 15%.
`COC(=O)CC[C@H](N)C(=O)OC` showed an inhibition of less than 15%.
Same read-out and setting: the same measure for `CC[C@H](C)[C@H](NC(=O)CN)C(=O)O` (H-Gly-Ile-OH): less than 15%; for `NCC(=O)NCCC(=O)NCCS(=O)(=O)O`: less than 15%; for `NC(=O)CC[C@H](NC(=O)[C@@H]1CCCN1)C(=O)O` (H-Pro-Gln-OH): less than 15%.

For a further data set the target is unchanged. As to the kind of experiment: Induction of nitrogen-starved wild type sigma1278b yeast Gap1-mediated […] activation at 5 mM.
Conditions: not given
Take `CC(C)C[C@H](N)C(=O)NCC(=O)O` (H-Leu-Gly-OH): the result was Active.

The target in another data set is T1, General amino-acid permease GAP1. As to the kind of experiment: Competitive inhibition of nitrogen-starved wild type sigma1278b yeast Gap1 by Lineweaver-Burke plot analysis.
Conditions: not given
Take `N[C@@H](CC(=O)N[C@@H](CCC(=O)O)c1ccccc1)C(=O)O`: the affinity corresponds to a Ki of 0.105 mM.
With `CC(C)C[C@H](N)C(=O)NCC(=O)O` (H-Leu-Gly-OH), the affinity corresponds to a Ki of 0.19 mM.

Another data set has as its target T2, General amino-acid permease GAP1 (Saccharomyces cerevisiae). As to the kind of experiment: Inhibition of nitrogen-starved wild type sigma1278b yeast Gap1 assessed as reduction of L-citrulline-mediated trehalose activation at 5 to 10 mM.
Conditions: not given
For the molecule `N[C@@H](CC(=O)N[C@@H](CCC(=O)O)c1ccccc1)C(=O)O`, the inhibition entry is “Active”.

Substrate in the next data set: NC(=O)NCCC[C@H](N)C(=O)O
As to the kind of experiment: Activity at nitrogen-starved wild type sigma1278b Gap1. As to conditions: Saccharomyces cerevisiae.
As for B1, the Km was 37 µM.

In the next data set the target is T2, General amino-acid permease GAP1 (Saccharomyces cerevisiae). As to the kind of experiment: Induction of nitrogen-starved wild type sigma1278b yeast Gap1-mediated […] activation at 5 mM in presence of 10 mM MTSEA treated before compound addition.
Conditions: not given
As for `CC(C)C[C@H](N)C(=O)NCC(=O)O` (H-Leu-Gly-OH), the outcome was inactive.

A further data set has the same target. As to the kind of experiment: Noncompetitive inhibition of nitrogen-starved wild type sigma1278b yeast Gap1-mediated amino acid uptake at 5 mM after 60 secs relative to L-citrulline.
Conditions: not given
In turn, `N=C(N)NCCC[C@H](N)C(=O)NCC(=O)NCC(=O)O` (H-Arg-Gly-Gly-OH) yielded an inhibition greater than 30%.
The same measure, in the same setting: the same measure for `CC(C)C[C@H](NC(=O)[C@H](C)N)C(=O)O` (H-Ala-Leu-OH): greater than 30%; for `C[C@H](N)C(=O)NCC(=O)N[C@@H](C)C(=O)O` (H-Ala-Gly-Ala-OH): greater than 30%.
The same measure, in the same setting: next, `N=C(N)NCCC[C@H](N)C(=O)N[C@@H](Cc1ccccc1)C(=O)N[C@@H](Cc1ccccc1)C(=O)O` (H-Arg-Phe-Phe-OH): greater than 30%; `CC(N)C(=O)NC(Cc1ccccc1)C(=O)O` (racemic): greater than 30%.
Still for that read-out and setting: next, `N=C(N)NCCC[C@H](NC(=O)[C@@H](N)CCCNC(=N)N)C(=O)Nc1ccc2ccccc2c1` (H-Arg-Arg-βNA): greater than 30%; `CC(C)C[C@H](NC(=O)[C@@H](N)CC(C)C)C(=O)N[C@@H](C)C(=O)O` (H-Leu-Leu-Ala-OH): 15%; `C[C@H](NC(=O)[C@H](Cc1ccccc1)NC(=O)[C@@H](N)CCCNC(=N)N)C(=O)O` (H-Arg-Phe-Ala-OH): greater than 30%.
`CC(C)C[C@H](NC(=O)[C@H](CC(C)C)NC(=O)[C@@H](N)CC(C)C)C(=O)O` (H-Leu-Leu-Leu-OH): the inhibition worked out at 15%.
Still for that read-out and setting: next, `CC(C)C[C@H](NC(=O)CCCCN)C(=O)O`: greater than 30%.
The same measure, in the same setting: next, `CSCC[C@H](NC(=O)[C@@H](N)CC(C)C)C(=O)O` (H-Leu-Met-OH): 15%; `CSCC[C@H](NC(=O)[C@@H](N)CC(C)C)C(N)=O` (H-Leu-Met-NH2): greater than 30%.
In the case of `NC(N)=NCCC[C@H](N)C(=O)NCC(=O)O` (H-Arg-Gly-OH), the inhibition was greater than 30%.
Same read-out and setting: next, `CC(C)[C@H](NC(=O)CNC(=O)[C@H](C)N)C(=O)O` (H-Ala-Gly-Val-OH): greater than 30%; `CC(C)C[C@H](N)C(=O)N[C@H](CC(C)C)C(=O)O`: greater than 30%.
The same measure, in the same setting: next, `CC(C)C[C@H](NC(=O)[C@H](CC(C)C)NC(=O)CCN)C(=O)O` (H-[βAla]-Leu-Leu-OH): 15%.
On the same count and under the same terms, next, `CC(C)C[C@H](NC(=O)[C@@H](NC(=O)[C@@H](N)CC(C)C)C(C)C)C(=O)O` (H-Leu-Val-Leu-OH): 15%.

Another data set shares this target. Nature of the data set: Inhibition of L-Arg-L-Gly-L-Gly-induced nitrogen-starved wild type sigma1278b yeast Gap1.
Conditions: not given
As to `N[C@@H](CC(=O)N[C@@H](CCC(=O)O)c1ccccc1)C(=O)O`, the inhibition result is “inactive”.

The target is the same in the next data set. As to the kind of experiment: Competitive inhibition of nitrogen-starved wild type sigma1278b yeast Gap1-mediated amino acid uptake at 5 mM after 60 secs relative to L-citrulline.
Conditions: not given
Turning to `N[C@@H](CC(=O)O)C(=O)N[C@@H](Cc1ccccc1)C(=O)O` (H-Asp-Phe-OH), the inhibition was greater than 30%.
Same read-out and setting: next, `CC(C)C[C@H](N)C(=O)NCC(=O)O` (H-Leu-Gly-OH): greater than 30%.

For the next data set the target is unchanged. Nature of the data set: Induction of nitrogen-starved wild type sigma1278b yeast Gap1-mediated amino acid uptake at 5 mM after 90 mins.
Conditions: not given
As to `N[C@@H](CC(=O)N[C@@H](CCC(=O)O)c1ccccc1)C(=O)O`, the outcome was inactive.
Take `CC(C)C[C@H](N)C(=O)NCC(=O)O` (H-Leu-Gly-OH): the result was inactive.
